Test results as given in ChEMBL document CHEMBL1149001, “Phebalosin from the bark of Micromelum minutum” (J Nat Prod, 1986).
Converted amounts (≈) assume the structure as drawn.

What was measured:
[1] = Cytotoxicity against mouse 9PS cells; type: functional; conditions: read-out: ED50 (the source's name)
Artemia = assay: Toxicity in brine shrimp; type: organism-based; conditions: in vivo
[2] = system: Agrobacterium tumefaciens; assay: Antitumor activity against Agrobacterium tumefaciens-induced crown gall tumors assessed as inhibition of tumor development in potato by crown gall tumor potato disk test; type: functional; parameters: scale not given: the % may be the effect or the level left
[3] = Cytotoxicity against human 9KB cells; type: functional; conditions: read-out: ED50 (the source's name)

## C=C(C)[C@H]1O[C@@H]1c1c(OC)ccc2ccc(=O)oc12 [PHEBALOSIN]
[1]
  EC50: 27 µg/mL (≈ 105 µM)
Artemia
  LC50: 47 ppm
[2]
  Activity: -70%
[3]
  EC50: > 20 µg/mL
